This is an account of results in patent US10150757B2, “Quinazolinone derivatives as PARP inhibitors” (Janssen Pharmaceutica NV, priority 2004, dated 2018).

Test [1] has as its target T1, PARP-1 enzyme (Homo sapiens, UniProt P09874). Description: In vitro scintillation proximity assay (SPA) for PARP-1 inhibitory activity. The test is classed as biochemical. Conditions: [3H]-NAD+, biotinylated histones, nicked DNA; read-out: in vitro SPA assay PARP-1 pIC50 (converted). On the procedure:
In Vitro Scintillation Proximity Assay (SPA) for PARP-1 Inhibitory Activity
Compounds of the present invention were tested in an in vitro assay based on SPA technology (proprietary to Amersham Pharmacia Biotech).
In principle, the assay relies upon the well established SPA technology for the detection of poly(ADP-ribosyl)ation of biotinylated target proteins, i.e histones. This ribosylation is induced using nicked DNA activated PARP-1 enzyme and [^3H]-nicotinamide adenine dinucleotide ([^3H]-NAD^+) as ADP-ribosyl donor.
As inducer of PARP-1 enzyme activity, nicked DNA was prepared. For this, 25 mg of DNA (supplier: Sigma) was dissolved in 25 ml DNAse buffer (10 mM Tris-HCl, pH 7.4; 0.5 mg/ml Bovine Serum Albumine (BSA); 5 mM MgCl2.6H2O and 1 mM KCl) to which 50 μl DNAse solution (1 mg/ml in 0.15M NaCl) was added. After an incubation of 90 min. at 37° C., the reaction was terminated by adding 1.45 g NaCl, followed by a further incubation at 58° C. for 15 min. The reaction mixture was cooled on ice and dialysed at 4° C. for respectively 1.5 and 2 hours against 1.5 l of 0.2M KCl, and twice against 1.5 l of 0.01M KCl for 1.5 and 2 h respectively. The mixture was aliquoted and stored at −20° C. Histones (1 mg/ml, type II-A, supplier: Sigma) were biotinylated using the biotinylation kit of Amersham and stored aliquoted at −20° C. A stock solution of 100 mg/ml SPA poly(vinyl toluene) (PVT) beads (supplier: Amersham) was made in PBS. A stock solution of [^3H]-NAD^+ was made by adding 120 μl of [^3H]-NAD^+ (0.1 mCi/ml, supplier: NEN) to 6 ml incubation buffer (50 mM Tris/HCl, pH 8; 0.2 mM DTT; 4 mM MgCl2). A solution of 4 mM NAD^+ (supplier: Roche) was made in incubation buffer (from a 100 mM stock solution in water stored at −20° C.). The PARP-1 enzyme was produced using art known techniques, i.e. cloning and expression of the protein starting from human liver cDNA. Information concerning the used protein sequence of the PARP-1 enzyme including literature references can be found in the Swiss-Prot database under primary accession number P09874. Biotinylated histones and PVT-SPA beads were mixed and pre-incubated for 30 min. at room temperature. PARP-1 enzyme (concentration was lot dependent) was mixed with the nicked DNA and the mixture was pre-incubated for 30 min. at 4° C. Equal parts of this histones/PVT-SPA beads solution and PARP-1 enzyme/DNA solution were mixed and 75 μl of this mixture together with 1 μl of compound in DMSO and 25 μl of [^3H]-NAD^+ was added per well into a 96-well microtiterplate. The final concentrations in the incubation mixture were 2 μg/ml for the biotinylated histones, 2 mg/ml for the PVT-SPA beads, 2 μg/ml for the nicked DNA and between 5-10 μg/ml for the PARP-1 enzyme. After incubation of the mixture for 15 min. at room temperature, the reaction was terminated by adding 100 μl of 4 mM NAD^+ in incubation buffer (final concentration 2 mM) and plates were mixed.
The beads were allowed to sediment for at least 15 min. and plates transferred to a TopCountNXT™ (Packard) for scintillation counting, values were expressed as counts per minute (cpm). For each experiment, controls (containing PARP-1 enzyme and DMSO without compound), a blank incubation (containing DMSO but no PARP-1 enzyme or compound) and samples (containing PARP-1 enzyme and compound dissolved in DMSO) were run in parallel. All compounds tested were dissolved and eventually further diluted in DMSO. In first instance, compounds were tested at a concentration of 10^−5M. […] In each test, the blank value was subtracted from both the control and the sample values. The control sample represented maximal PARP-1 enzyme activity. For each sample, the amount of cpm was expressed as a percentage of the mean cpm value of the controls. […] Herein the effects of test compounds are expressed as pIC50 (the negative log value of the IC50-value).
In general terms: Scintillation proximity formats need no separation of bound from free tracer.

The target of test [2] is T1, PARP-1 enzyme. The test can be described thus: In vitro filtration assay for PARP-1 inhibitory activity. The test is classed as biochemical. Conditions: [32P]-NAD, histones, nicked DNA; read-out: in vitro filter assay PARP-1 pIC50 (converted). The method, then:
In Vitro Filtration Assay for PARP-1 Inhibitory Activity
Compounds of the present invention were tested in an in vitro filtration assay assessing PARP-1 activity (triggered in the presence of nicked DNA) by means of its histone poly (ADP-ribosyl)ation activity using [^32P]-NAD as ADP-ribosyl donor. The radioactive ribosylated histones were precipitated by trichloroacetic acid (TCA) in 96-well filterplates and the incorporated [^32P] measured using a scintillation counter
A mixture of histones (stock solution: 5 mg/ml in H2O), NAD^+ (stock solution: 100 mM in H2O), and [^32P]-NAD^+ in incubation buffer (50 mM Tris/HCl, pH 8; 0.2 mM DTT; 4 mM MgCl2) was made. A mixture of the PARP-1 enzyme (5-10 μg/ml) and nicked DNA was also made. The nicked DNA was prepared as described in the in vitro SPA for PARP-1 inhibitory activity. Seventy-five μl of the PARP-1 enzyme/DNA mixture together with 1 μl of compound in DMSO and 25 μl of histones-NAD^+/[^32P]-NAD^+ mixture was added per well of a 96-well filterplate (0.45 μm, supplier Millipore). The final concentrations in the incubation mixture were 2 μg/ml for the histones, 0.1 mM for the NAD^+, […] (0.5 μC) for the [^32P]-NAD^+ and 2 μg/ml for the nicked DNA. Plates were incubated for 15 min. at room temperature and the reaction was terminated by the addition of 10 μl ice cold 100% TCA followed by the addition of 10 μl ice-cold BSA solution (1% in H2O). The protein fraction was allowed to precipitate for 10 min. at 4° C. and plates were vacuum filtered. The plates were subsequently washed with, for each well, 1 ml of 10% ice cold TCA, 1 ml of 5% ice cold TCA and 1 ml of 5% TCA at room temperature. Finally 100 μl of scintillation solution (Microscint 40, Packard) was added to each well and the plates were transferred to a TopCountNXT™ (supplier: Packard) for scintillation counting and values were expressed as counts per minute (cpm). For each experiment, controls (containing PARP-1 enzyme and DMSO without compound), a blank incubation (containing DMSO but no PARP-1 enzyme or compound) and samples (containing PARP-1 enzyme and compound dissolved in DMSO) were run in parallel. All compounds tested were dissolved and eventually further diluted in DMSO. In first instance, compounds were tested at a concentration of 10^−5M. […] In each test, the blank value was subtracted from both the control and the sample values. The control sample represented maximal PARP-1 enzyme activity. For each sample, the amount of cpm was expressed as a percentage of the mean cpm value of the controls. […] Herein the effects of test compounds are expressed as pIC50 (the negative log value of the IC50-value).

T1 sequence (P09874 whole entry): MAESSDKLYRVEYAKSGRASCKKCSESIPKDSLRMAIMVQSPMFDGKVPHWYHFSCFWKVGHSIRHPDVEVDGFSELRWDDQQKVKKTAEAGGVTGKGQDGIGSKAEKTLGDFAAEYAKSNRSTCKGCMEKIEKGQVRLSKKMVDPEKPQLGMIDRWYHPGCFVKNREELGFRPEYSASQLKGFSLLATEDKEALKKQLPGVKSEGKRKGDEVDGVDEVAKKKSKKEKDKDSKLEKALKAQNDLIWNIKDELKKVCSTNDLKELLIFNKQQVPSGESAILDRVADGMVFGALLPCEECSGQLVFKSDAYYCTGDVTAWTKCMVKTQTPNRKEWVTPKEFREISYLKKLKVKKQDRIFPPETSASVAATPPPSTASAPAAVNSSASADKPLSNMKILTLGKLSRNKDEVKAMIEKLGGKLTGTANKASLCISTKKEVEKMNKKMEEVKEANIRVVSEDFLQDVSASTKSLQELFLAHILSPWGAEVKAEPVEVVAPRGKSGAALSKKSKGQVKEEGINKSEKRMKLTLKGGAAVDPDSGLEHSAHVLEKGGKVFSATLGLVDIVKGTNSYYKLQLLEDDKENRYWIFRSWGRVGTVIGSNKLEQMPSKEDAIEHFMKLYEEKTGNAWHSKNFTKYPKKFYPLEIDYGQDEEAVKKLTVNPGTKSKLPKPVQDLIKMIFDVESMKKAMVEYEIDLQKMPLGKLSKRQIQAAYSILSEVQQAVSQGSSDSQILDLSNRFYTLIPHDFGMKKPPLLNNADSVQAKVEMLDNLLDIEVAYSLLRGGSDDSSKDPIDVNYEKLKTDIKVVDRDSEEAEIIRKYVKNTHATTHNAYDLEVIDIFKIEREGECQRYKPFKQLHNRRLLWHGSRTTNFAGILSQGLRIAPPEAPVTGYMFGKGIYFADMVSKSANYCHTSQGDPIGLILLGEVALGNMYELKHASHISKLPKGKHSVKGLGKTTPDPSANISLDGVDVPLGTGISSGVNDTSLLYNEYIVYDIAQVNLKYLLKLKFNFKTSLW

Turning to `O=C(c1ccc(F)cc1)C1CCN(CCNc2nc3ccccc3c(=O)[nH]2)CC1` [Compound 46], the IC50 is 231 nM on PARP-1 enzyme [1] and 1870 nM at PARP-1 enzyme [2].
